Experimental findings from patent US6451734B1, “Substituted 3-benzylpyrazoles and their use as herbicides” (BASF Aktiengesellschaft, priority 1996, dated 2002) are described below.

Common to all, as to type: in vivo
Assay [1] in a line: effect on the plasma glucose and insulin level in diabetes mice. The conditions noted are these: homocygotic diabetes mice, not fed for one night; by pharyngeal tube in 0.25% hydroxyethylcellulose; blood collected 2 and 4 hours after treatment. The text has this:
The animals which were used in the experiments described below received, in addition to sufficient water, a standard feed (“Rat and Mouse Breeder and Grower Diet” supplied by Special Diets Services Ltd., UK). Effect of the active compounds according to the invention on the plasma glucose and insulin level The laboratory animals used were homocygotic diabetes mice (40—60 g, supplied by Harlan UK) which were initially not fed for one night and then separated into different groups. The active compounds were administered as a solution or suspension in 0.25% strength aqueous hydroxyethylcellulose (CELLOSIZE supplied by UCC) using a pharyngeal tube, namely at 5 ml/kg of body weight. 2 and 4 hours after the treatment, approximately 50 μl each of blood were collected from the tip of the tail in capillary tubes for the collection of blood containing lithium heparin (supplied by Sarstedt, “Microvette CB300LH”). Plasma samples (5 μl) were immediately tested for their glucose content. A further 10 μl were stored in an Eppendorf tube at (−70)° C. until the plasma glucose and insulin content were determined.

A short description of assay [2]: determination of glucose elimination via urine in CD1-mice. As for the experimental part:
The animals which were used in the experiments described below received, in addition to sufficient water, a standard feed (“Rat and Mouse Breeder and Grower Diet” supplied by Special Diets Services Ltd., UK). Determination of Glucose Elimination via Urine In this experiment, 4 groups of 5 CD1-mice each (20—25 g, supplied by Harlan, UK) were transferred into metabolism cages and initially acclimatized for 24 hours. By pharyngeal tube, animals were then administered 100 mg/kg of body weight of the active compound IIIc.1, dissolved or suspended in 0.25% strength aqueous hydroxyethylcellulose (CELLOSIZE supplied by UCC). For comparison, 0.25% strength aqueous Cellosize without active compound was administered to the other 10 mice. The urine was subsequently collected for 24 hours and its total volume was measured. In each case […] of urine were examined for their glucose content.

The subject of another assay is Abutilon theophrasti. Kind of assay: greenhouse experiment, post-emergence treatment (herbicidal activity). As to conditions: Abutilon theophrasti (velvet leaf), 0.125 kg/ha of a.s. The source says: (§1) The herbicidal activity of the substituted 3-benzylpyrazoles I was demostrated by the following greenhouse experiments: The culture containers used were plastic flowerpots containing loamy soil with approximately 3.0% of humus as the substrate. The seeds of the test plants were sown separately for each species. For the post-emergence treatment, the test plants were first grown to a plant height of 3 to 15 cm, depending on the plant habit, and only then treated with the active ingredients which had been suspended or emulsified in water. The test plants for this purpose were either sown directly and grown in the same containers, or they were first grown separately as seedlings and transplanted into the test containers a few days prior to treatment. The rate of application for the post-emergence treatment was 0.125 kg/ha of a.s. (active substance). Depending on the species, the plants were kept at 10-25° C. or 20-35° C. The test period extended over 2 to 4 weeks. During this time, the plants were tended, and their response to the individual treatments was evaluated. Evaluation was carried out using a scale from 0 to 100. 100 means no emergence of the plants, or complete destruction of at least the aerial parts, and 0 means no damage, or normal course of growth. The plants used in the greenhouse experiments belonged to the following species: [table]

The test system of another assay is Amaranthus retroflexus. Described as above. The conditions noted are these: Amaranthus retroflexus (redroot pigweed), 0.125 kg/ha of a.s.
Text: as §1

The subject of the next assay is Setaria viridis. Described as above. As to conditions: Setaria viridis (green foxtail), 0.125 kg/ha of a.s.
Text: as §1

Another assay concerns Solanum nigrum. The description is as above. The conditions noted are these: Solanum nigrum (black nightshade), 0.125 kg/ha of a.s.
Text: as §1

[3] abbreviates: 10 CD1-mice, 100 mg/kg of body weight by pharyngeal tube, urine collected for 24 hours.

Take `Cn1c(=O)cc(Cc2cccc(Cl)c2Cl)n1C(F)F` [IIIc.1, 5-(2,3-Dichlorobenzyl)-1-difluoromethyl-1,2-dihydro-2-methyl-3H-pyrazol-3-one]: in assay [1], the plasma insulin level result is listed as “substantially unchanged”. In addition, in assay [2] (setting [3]), the “glucose concentration of the urine” value was found to be 17.62 mmol/L and the “total elimination of glucose” value came to 70.48 µmol. In assay [2] (CD1-mice, 100 mg/kg by pharyngeal tube, 24 hours, versus Cellosize without active compound), the “increase of the elimination of glucose (via urine)” value amounted to 52%.
Regarding `Cn1nc(Cc2cccc(Cl)c2Cl)c(Cl)c1OC(F)F` [Ia.1, 4-Chloro-3-(2,3-dichlorobenzyl)-5-difluoromethoxy-1-methyl-1H-pyrazole], the herbicidal activity entry in the assay on Abutilon theophrasti, in the assay with Amaranthus retroflexus, in the assay with Setaria viridis and with Solanum nigrum was “very good” throughout. The plasma insulin level entry in assay [1] is listed as “substantially unchanged”.
As to `Cn1nc(Cc2cccc(Cl)c2Cl)cc1OC(F)F` [Ic.1, 3-(2,3-Dichlorobenzyl)-5-difluoromethoxy-1-methyl-1H-pyrazole], in assay [1], the plasma insulin level entry was “substantially unchanged”.
